Data on 3 compounds can be found in patent publication US20180250320A1, “COMPOSITIONS AND METHODS FOR TREATING SOLID TUMORS” (THE JOHNS HOPKINS UNIVERSITY, priority 2015, published 2018).

The subject of data set [1] is Human lung cancer cell lines H23 and A549. In words: Expression of anti-viral genes and cancer testis antigens after AZA priming and HDACi treatment. The format is cell-based. To be noted: for expression of anti-viral genes: FIG. 4A; for expression of cancer testis antigens: FIG. 4B. An excerpt:
FIGS. 4A and 4B. […] Human lung cancer cell lines H23 and A549 were primed by treatment with AZA (red line) for 5 days followed by 3-5 days of treatment with the HDACi. For many genes, addition of an HDACi to AZA increases gene expression above levels attained by AZA alone.

Data set [2] concerns VEGF-defensin ID8 ovarian cells. In words: Ascites fluid volume in the ID8 model of ovarian cancer. In kind it is in vivo. Particulars: mice drained at week 6 after injection; same regimen; vs untreated (Mock) or single agent. As to the method:
Mice were injected with 2.5×10^6VEGF-defensin ID8 ovarian cells i.p. Three days later, mice began treatment with 0.5 mg/kg 5-azacytidine (AZA) for 5 days per week. The next week the mice were treated with either 2 mg/kg MS275 or ITF 5 days a week, and the treatments alternated by week until the end of the experiment. Mice developed ascites fluid by week 4.5, and were drained and the ascites volume was measured. Ascites volume from mice drained at week 6 after injection.

For data set [3] the following is noted: cited from earlier work.
Setting [4] is: HDACi in combination with AZA: AZA priming 5 days, then 3-5 days HDACi.

Like-named read-outs stand apart in the source and are kept apart here.

On to `CCN(CC)Cc1ccc2cc(COC(=O)Nc3ccc(C(=O)NO)cc3)ccc2c1.Cl` [Givinostat, diethyl-[6-(4-hydroxycarbamoyl-phenylcarbamoyloxymethyl)-naphthalen-2-ylmethyl]-ammonium chloride], for which the “expression of anti-viral genes” value in data set [1] (setting [4]) is listed as “increase expression”; in data set [1] (HDACi used as single agent), “NOT”. Moreover, the entries for the “expression of cancer testis antigens” value in data set [1] (setting [4]) and in data set [1] (HDACi used as single agent) were “increase expression” and “NOT”, respectively.
Take `Nc1ncn([C@@H]2O[C@H](CO)[C@@H](O)[C@H]2O)c(=O)n1` [AZA, 4-amino-1-β-D-ribofuranozyl-s-triazin-2(1H)-one]: the ascites fluid volume result in data set [2] is given as “significantly reduced ascites volume compared to Mock”. The solubility entry in data set [3] (5% Tween 80 in water) is given as “sparingly soluble”; in data set [3] (5% dextrose in water), “sparingly soluble”; in data set [3] (N-methyl-2-pyrrolidone), “sparingly soluble”; in data set [3] (acetone), “insoluble”; in data set [3] (dimethylsulfoxide (DMSO)), “soluble”; in data set [3] (ethanol/water (50/50)) it was “slightly soluble”. The solubility entry in data set [3] (ethanol) is listed as “insoluble”; in data set [3] (methyl ketone), “insoluble”; in data set [3] (normal saline), “sparingly soluble”; in data set [3] (polyethylene glycol) it was “slightly soluble”; in data set [3] (propylene glycol) it was “slightly soluble”; in data set [3] (water-saturated octanol), “sparingly soluble”. The solubility entry in data set [3] (water) is on record as “sparingly soluble”.
Consider `Nc1ccccc1NC(=O)c1ccc(CNC(=O)OCc2cccnc2)cc1` [Entinostat], for which, in data set [1] (setting [4]), the “expression of anti-viral genes” value was “increase expression” and the “expression of cancer testis antigens” value is reported as “increase expression”. In data set [1] (HDACi used as single agent), the “expression of anti-viral genes” value was “NOT” and the “expression of cancer testis antigens” value is listed as “NOT”.
